Assay results from the supplement of paper PMC10307832.

Columns and labels:
Assay in all cases: relative viability (nuclei count vs DMSO), 5 days (fraction); higher = more cells survive
Bexarotene + Navitoclax = compound: C=C(c1ccc(C(=O)O)cc1)c1cc2c(cc1C)C(C)(C)CCC2(C)C [Bexarotene] + CC1(C)CCC(c2ccc(Cl)cc2)=C(CN2CCN(c3ccc(C(=O)NS(=O)(=O)c4ccc(N[C@H](CCN5CCOCC5)CSc5ccccc5)c(S(=O)(=O)C(F)(F)F)c4)cc3)CC2)C1 [Navitoclax] (partner 0.5 µM)
In short: (§1)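 Lung cancer cell lines in 1536-well plates were dosed by pin tool the day after seeding, either with one drug alone or with a fixed anchor-drug dose plus five library-drug doses (not always all listed) in √10 steps. After 5 days, cells were fixed and their nuclei stained in one step (final 0.05% Triton X-100, 1% formaldehyde, 1 ug/ml Hoechst), then counted on 4× images. Relative viability is the nuclei count in treated wells divided by that in vehicle wells. Values are medians of duplicate plates.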

Bexarotene + Luminespib = compound: C=C(c1ccc(C(=O)O)cc1)c1cc2c(cc1C)C(C)(C)CCC2(C)C [Bexarotene] + CCNC(=O)c1noc(-c2cc(C(C)C)c(O)cc2O)c1-c1ccc(CN2CCOCC2)cc1 [Luminespib] (partner 0.01 µM)
In short: as §1

Bexarotene + Foretinib = compound: C=C(c1ccc(C(=O)O)cc1)c1cc2c(cc1C)C(C)(C)CCC2(C)C [Bexarotene] + COc1cc2c(Oc3ccc(NC(=O)C4(C(=O)Nc5ccc(F)cc5)CC4)cc3F)ccnc2cc1OCCCN1CCOCC1 [Foretinib] (partner 0.25 µM)
In short: as §1

Bexarotene + Linsitinib = compound: C=C(c1ccc(C(=O)O)cc1)c1cc2c(cc1C)C(C)(C)CCC2(C)C [Bexarotene] + C[C@]1(O)C[C@@H](c2nc(-c3ccc4ccc(-c5ccccc5)nc4c3)c3c(N)nccn32)C1 [Linsitinib] (partner 1 µM)
In short: as §1

Cell Line	relative viability (Bexarotene + Navitoclax; first compound 0.08 µM)	relative viability (Bexarotene + Navitoclax; first compound 0.253 µM)	relative viability (Bexarotene + Navitoclax; first compound 0.8 µM)	relative viability (Bexarotene + Navitoclax; first compound 2.53 µM)	relative viability (Bexarotene + Navitoclax; first compound 8 µM)	relative viability (Bexarotene + Luminespib; first compound 0.08 µM)	relative viability (Bexarotene + Luminespib; first compound 0.253 µM)	relative viability (Bexarotene + Luminespib; first compound 0.8 µM)	relative viability (Bexarotene + Luminespib; first compound 2.53 µM)	relative viability (Bexarotene + Luminespib; first compound 8 µM)	relative viability (Bexarotene + Foretinib; first compound 0.08 µM)	relative viability (Bexarotene + Foretinib; first compound 0.253 µM)	relative viability (Bexarotene + Foretinib; first compound 0.8 µM)	relative viability (Bexarotene + Foretinib; first compound 2.53 µM)	relative viability (Bexarotene + Foretinib; first compound 8 µM)	relative viability (Bexarotene + Linsitinib; first compound 0.08 µM)	relative viability (Bexarotene + Linsitinib; first compound 0.253 µM)	relative viability (Bexarotene + Linsitinib; first compound 0.8 µM)	relative viability (Bexarotene + Linsitinib; first compound 2.53 µM)	relative viability (Bexarotene + Linsitinib; first compound 8 µM)
NCI-H596	1.02	0.85	0.707	0.973	0.829	1.08	1.18	1.01	0.983	0.963	0.781	0.61	0.813	0.853	0.858	1.12	0.966	0.838	0.981	1.06
NCI-H647	1.32	1.35	1.2	1.15	1.1	0.148	0.176	0.211	0.134	0.11	1.32	1.42	1.4	1.32	1.04	1.29	1.41	1.22	1.26	0.914
NCI-H727	0.467	0.38	0.452	0.354	0.405	0.392	0.685	0.325	0.322	0.372	1.09	1.12	0.875	0.859	0.808	0.286	0.408	0.305	0.311	0.284
NCI-H838	1.13	1.33	1.23	1.32	1.22	0.368	0.377	0.269	0.329	0.321	1.14	1.03	1.06	1.05	1.01	1.13	1.11	1.03	1.17	1.06
NCI-H1355	1.03	0.998	0.928	1.17	0.84	0.831	0.714	0.668	0.631	0.716	1	1.09	0.91	1.05	0.947	1.02	0.945	0.801	0.923	0.764
NCI-H1395	1.19	1.11	1.05	1.07	1.1	0.806	0.631	0.687	0.663	0.749	1.07	1.02	1.04	0.949	1.09	1.15	1.08	1.23	1.07	1.11
NCI-H1437	1.08	1.15	1.06	1.07	0.953	1.05	1.07	1.15	1.07	1.1	1.26	1.32	1.22	1.23	1.26	1.01	1.09	0.93	1	0.898
NCI-H1651	1.1	1.09	1.11	1.22	0.925	1.06	0.881	0.938	0.845	0.911	0.86	0.98	0.805	0.933	0.84	1.12	0.934	1.02	1.08	0.984
